According to patent US20250197425A1, “2,6,9-TRISUBSTITUTED PURINES” (ASTRAZENECA AB, priority 2022, published 2025):
pIC50: −log10 of the molar value. ≈ marks a conversion by molar mass, not a printed value.

Key:
[1] = biological target: CDK1:CCNB1 (Homo sapiens (Human), UniProt P06493); experiment: NanoBRET assay in MCF-7 cells, CDK1; assay type: cell-based; conditions: NanoBRET, transfected MCF-7 cells, 2 hours; n = 1 or average; read-out: CDK1 IC50
Summary of the method: (§1)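 Transiently transfected MCF-7 cells expressing CDK1:CCNB1 or CDK4:CCND1 were treated with compound plus tracer (CDK1: Tracer K-9, 400 μM stock; CDK4: Tracer K-7, 100 μM stock) for 2 h at 37 °C.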

[2] = biological target: CDK4:CCND1 (Homo sapiens (Human), UniProt P11802); experiment: NanoBRET assay in MCF-7 cells, CDK4; assay type: cell-based; conditions: NanoBRET, transfected MCF-7 cells, 2 hours; n = 1 or average; read-out: CDK4 IC50
CDK4:CCND1, sequence (P11802 whole entry): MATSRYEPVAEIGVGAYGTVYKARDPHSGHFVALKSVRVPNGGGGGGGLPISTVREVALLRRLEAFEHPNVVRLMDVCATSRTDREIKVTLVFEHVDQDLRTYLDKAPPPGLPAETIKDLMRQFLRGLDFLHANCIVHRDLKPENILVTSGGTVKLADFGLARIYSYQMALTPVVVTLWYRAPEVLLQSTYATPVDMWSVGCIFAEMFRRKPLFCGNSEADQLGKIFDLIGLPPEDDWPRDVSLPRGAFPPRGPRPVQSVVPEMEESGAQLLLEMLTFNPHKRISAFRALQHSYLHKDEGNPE
CDK4:CCND1, sequence (P24385 whole entry partner): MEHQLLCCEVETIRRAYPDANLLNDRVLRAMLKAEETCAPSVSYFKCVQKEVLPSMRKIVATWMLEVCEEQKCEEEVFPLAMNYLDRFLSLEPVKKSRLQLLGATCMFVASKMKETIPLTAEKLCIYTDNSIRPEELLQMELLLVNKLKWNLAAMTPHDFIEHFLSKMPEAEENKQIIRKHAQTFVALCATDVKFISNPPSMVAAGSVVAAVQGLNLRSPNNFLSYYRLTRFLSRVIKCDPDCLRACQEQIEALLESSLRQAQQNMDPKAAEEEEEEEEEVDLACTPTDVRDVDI
Summary of the method: as §1

[3] = biological target: CDK2:CCNE1 (Homo sapiens (Human), UniProt P24941); experiment: NanoBRET assay in MCF-7 cells, CDK2; assay type: cell-based; conditions: transfected MCF-7 cells, 2 hours, n = 1 or average
Summary of the method: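 In live MCF-7 cells, compound added followed by NanoBRET TE Tracer K-9 (stock 200 μM) for CDK2, 2 h at 37° C, 5% CO2.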

[4] = test system: POLR2A Ser2 phosphorylation (CDK9); experiment: POLR2A Ser2 phosphorylation imaging assay in MCF-7 cells; assay type: cell-based; conditions: Homo sapiens, MCF7, 2 h, MCF-7 cells, 2 hours; read-out: POLR2A Ser2 phosphorylation IC50
Summary of the method: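 MCF-7 cells were fixed, permeabilised and immunostained for POLR2A phospho-Ser2, then imaged by high-content microscopy. Levels were normalised to controls and IC50 values derived.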

[5] = Aqueous thermodynamic solubility, shake-flask; assay type: physicochemical; conditions: aqueous phosphate buffer, 25 °C, pH 7.4, aqueous buffer, thermodynamic from solid, phosphate buffer 0.1 M, pH 7.4, 24 hours
Summary of the method: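 Dried compound (after DMSO evaporation) was equilibrated in 0.1 M phosphate buffer pH 7.4 with stirring for 24 h at 25° C. Undissolved material was removed by double centrifugation, and the supernatant was diluted in water and quantified by UPLC/MS/MS.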

[6] = test system: OVCAR3 cells; experiment: Cellular proliferation EdU assay, OVCAR3; assay type: cell-based, human; conditions: Homo sapiens, OVCAR-3, 48 h, EdU assay, two days; read-out: OVCAR3 IC50
Summary of the method: (§2)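 MCF-7 (800 cells/well) and OVCAR3 (1200 cells/well) in RPMI with 10% FBS exposed to compounds for two days at 37 °C.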

[7] = test system: MCF-7 cells; experiment: Cellular proliferation EdU assay, MCF-7; assay type: cell-based; conditions: Homo sapiens, MCF7, 48 h, EdU assay, two days; read-out: MCF-7 IC50
Summary of the method: as §2

[8] = CLint assessment in human liver microsomes (HLM); assay type: in vitro ADME; conditions: 1 μM
Description: After a preincubation with NADPH for 8 minutes, reactions were initiated through the addition of the test compound (final volume 250 μl) and incubated at 37° C. in a water bath for 30 minutes. […] Samples were shaken at 800 rpm for 2 minutes and centrifuged at 4000 rpm for 20 minutes at 4° C. to pellet precipitated protein. The supernatant fraction was diluted 1:5 with deionized water, shaken at 1000 rpm for 2 minutes, and further diluted 1:1 with deionized water. Samples were analyzed by LC-MS/MS. The t1/2 and the CLint of the compounds incubated in the LM, HLM, and HμREL assays as described above were calculated according to the following equations: […] where V (μl/×10^6 cells or mg protein) is the incubation volume (μl) divided by the number of cells (×10^6) or microsomal protein content (mg) in the incubation.

[9] = test system: NPM phosphorylation (Thr199, CDK2-cyclin E complex); experiment: NPM phosphorylation imaging assay in MCF-7 cells; assay type: cell-based; conditions: Homo sapiens, 4N DNA cells
Summary of the method: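 MCF-7 cells were fixed, permeabilised and immunostained, then imaged for phospho-NPM (Thr199), a CDK2-cyclin E site. Analysis was gated on 4N-DNA cells by Hoechst staining. Signals were normalised to controls and fitted for IC50.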

CDK1:CCNB1, sequence (P06493 whole entry): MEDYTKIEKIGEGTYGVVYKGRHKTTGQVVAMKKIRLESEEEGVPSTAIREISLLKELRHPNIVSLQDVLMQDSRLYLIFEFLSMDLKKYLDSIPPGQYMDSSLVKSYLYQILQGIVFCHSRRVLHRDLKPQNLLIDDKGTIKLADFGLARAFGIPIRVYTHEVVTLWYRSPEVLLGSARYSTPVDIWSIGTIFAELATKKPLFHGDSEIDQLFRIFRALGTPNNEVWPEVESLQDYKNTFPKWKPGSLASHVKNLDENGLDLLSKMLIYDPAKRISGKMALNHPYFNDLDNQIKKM
CDK1:CCNB1, sequence (P14635 whole entry partner): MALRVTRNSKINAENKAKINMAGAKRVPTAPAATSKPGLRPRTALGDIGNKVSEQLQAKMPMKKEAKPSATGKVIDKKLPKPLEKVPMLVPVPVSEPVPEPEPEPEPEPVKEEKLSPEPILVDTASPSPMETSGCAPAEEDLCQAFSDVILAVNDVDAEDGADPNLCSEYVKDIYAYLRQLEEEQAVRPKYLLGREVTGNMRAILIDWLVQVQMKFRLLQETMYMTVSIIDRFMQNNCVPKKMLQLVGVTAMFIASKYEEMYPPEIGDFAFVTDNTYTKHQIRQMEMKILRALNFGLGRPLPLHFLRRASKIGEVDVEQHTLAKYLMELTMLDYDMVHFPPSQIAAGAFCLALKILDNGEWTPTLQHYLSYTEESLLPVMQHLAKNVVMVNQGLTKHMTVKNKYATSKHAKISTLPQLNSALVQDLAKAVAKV

pIC50 ([9]; MCF7, 2 h) | Compound | pIC50 [1] | pIC50 [2] | pIC50 [3] | pIC50 [4] | solubility at 24 h [5] | pIC50 [6] | pIC50 [7] | HLM CLint [8] | pIC50 ([9]; MCF7, 2 hours)
6.36 | CC[C@H](Nc1nc(N[C@H]2CCN(S(N)(=O)=O)C2)c2ncn(CC)c2n1)[C@@H](C)O [Example 9, (S)-3-((9-ethyl-2-(((2R,3S)-2-hydroxypentan-3-yl)amino)-9H-purin-6-yl)amino)pyrrolidine-1-sulfonamide] | 5.66 | 4.69 | 7.00 | < 4.52 | > 1000 µM | 6.31 | 5.98 | 13.4 µL/min/mg | 
6.32 | CC[C@H](Nc1nc(N[C@H]2CCN(S(N)(=O)=O)C2)c2ncn(CC)c2n1)C(C)=O [Example 10, (S)-3-((9-ethyl-2-(((S)-2-oxopentan-3-yl)amino)-9H-purin-6-yl)amino)pyrrolidine-1-sulfonamide] | 5.34 | < 4.64 | 7.00 | < 4.52 | > 904 µM | 5.89 | 5.53 | 17.6 µL/min/mg | 
7.39 | CCNS(=O)(=O)N1CC[C@H](Nc2nc(N[C@@H](CO)C3CC3)nc3c2ncn3C(F)F)C1 [Example 14, (S)-3-((2-(((R)-1-cyclopropyl-2-hydroxyethyl)amino)-9-(difluoromethyl)-9H-purin-6-yl)amino)-N-ethylpyrrolidine-1-sulfonamide] | 7.01 | 6.00 | 8.22 | 5.38 | 320 µM (≈ 147 µg/mL) | 7.29 | 6.95 | 38 µL/min/mg | 
6.64 | CC(C)n1cnc2c(N[C@H]3CCN(S(C)(=O)=O)C3)nc(NC(CO)C3CCCC3)nc21 (stereo partly drawn) [Example 15, 2-cyclopentyl-2-((9-isopropyl-6-(((S)-1-(methylsulfonyl)pyrrolidin-3-yl)amino)-9H-purin-2-yl)amino)ethan-1-ol] | 5.92 | 5.59 | 7.66 | < 4.52 | 132 µM (≈ 59.6 µg/mL) | 6.25 | 6.04 | >300 µL/min/mg | 
6.43 | CC(C)n1cnc2c(N[C@H]3CCN(S(C)(=O)=O)C3)nc(NC(CO)C3CCCO3)nc21 (stereo partly drawn) [Example 16, 2-((9-isopropyl-6-(((S)-1-(methylsulfonyl)pyrrolidin-3-yl)amino)-9H-purin-2-yl)amino)-2-(tetrahydrofuran-2-yl)ethan-1-ol] | 5.80 | 4.76 | 7.03 | < 4.52 | > 1000 µM | 6.02 | 5.60 | 96.5 µL/min/mg | 
 | CC[C@H](Nc1nc(N[C@H]2CCN(S(=O)(=O)NC[C@H]3COCCO3)C2)c2ncn(CC)c2n1)[C@@H](C)O [Example 23, (S)—N—(((S)-1,4-dioxan-2-yl)methyl)-3-((9-ethyl-2-(((2R,3S)-2-hydroxypentan-3-yl)amino)-9H-purin-6-yl)amino)pyrrolidine-1-sulfonamide] | 5.59 | < 4.53 | 7.24 | < 4.52 | 814 µM (≈ 417 µg/mL) | 6.31 | 5.71 | 57.5 µL/min/mg | 6.32
 | CC[C@H](Nc1nc(N[C@H]2CCN(S(=O)(=O)NC[C@@H]3COCCO3)C2)c2ncn(CC)c2n1)[C@@H](C)O [Example 25, (S)—N—(((R)-1,4-dioxan-2-yl)methyl)-3-((9-ethyl-2-(((2R,3S)-2-hydroxypentan-3-yl)amino)-9H-purin-6-yl)amino)pyrrolidine-1-sulfonamide] | 5.40 | < 4.53 | 7.16 | < 4.52 | 912 µM (≈ 468 µg/mL) | 6.19 | 5.85 | 61.6 µL/min/mg | 6.20
 | CC(C)[C@H](CO)Nc1nc(N[C@H]2CCN(S(=O)(=O)C3CC3)C2)c2ncn(C(C)C)c2n1 [Example 27, (R)-2-((6-(((S)-1-(cyclopropylsulfonyl)pyrrolidin-3-yl)amino)-9-isopropyl-9H-purin-2-yl)amino)-3-methylbutan-1-ol] | 5.85 | 5.47 | 7.96 | < 4.52 | 39.8 µM (≈ 18 µg/mL) | 6.47 | 6.08 | >300 µL/min/mg | 6.57
5.66 | CC(C)[C@H](CO)Nc1nc(N[C@H]2CCN(S(C)(=O)=O)C2)c2ncn(C3CC3)c2n1 [Example 29, (R)-2-((9-cyclopropyl-6-(((S)-1-(methylsulfonyl)pyrrolidin-3-yl)amino)-9H-purin-2-yl)amino)-3-methylbutan-1-ol] | 5.43 | < 4.53 | 7.05 | < 4.52 | 71.2 µM (≈ 30.2 µg/mL) | 5.86 | 5.62 | 90.5 µL/min/mg | 
 | CC(C)n1cnc2c(N[C@H]3CCN(S(C)(=O)=O)C3)nc(N[C@@H](CO)C3CC3)nc21 [Example 30, (R)-2-cyclopropyl-2-((9-isopropyl-6-(((S)-1-(methylsulfonyl)-pyrrolidin-3-yl)amino)-9H-purin-2-yl)amino)ethanol] | 6.13 | 5.24 | 7.72 | < 4.52 | 276 µM (≈ 117 µg/mL) | 6.72 | 6.11 | 191 µL/min/mg | 6.70
 | CC[C@H](Nc1nc(N[C@H]2CCN(S(=O)(=O)c3cnn(C)c3)C2)c2ncn(C(C)C)c2n1)[C@@H](C)O [Example 31, (2R,3S)-3-((9-isopropyl-6-(((S)-1-((1-methyl-1H-pyrazol-4-yl)sulfonyl)pyrrolidin-3-yl)amino)-9H-purin-2-yl)amino)pentan-2-ol] | 5.20 | < 4.53 | 7.41 | < 4.52 | > 1000 µM | 6.02 | 5.50 | 154 µL/min/mg | 5.98
 | CC[C@H](Nc1nc(N[C@H]2CCN(S(=O)(=O)c3cn(C)cn3)C2)c2ncn(C(C)C)c2n1)[C@@H](C)O [Example 32, (2R,3S)-3-((9-isopropyl-6-(((S)-1-((1-methyl-1H-imidazol-4-yl)sulfonyl)pyrrolidin-3-yl)amino)-9H-purin-2-yl)amino)pentan-2-ol] | 5.65 | 4.55 | 7.09 | < 4.52 | > 1000 µM | 6.16 | 5.52 | 73 µL/min/mg | 6.22
 | CC(C)[C@H](CO)Nc1nc(N[C@H]2C[C@@H](C)N(S(C)(=O)=O)C2)c2ncn(C(C)C)c2n1 [Example 34, (R)-2-((9-isopropyl-6-(((3S,5R)-5-methyl-1-(methylsulfonyl)-pyrrolidin-3-yl)amino)-9H-purin-2-yl)amino)-3-methylbutan-1-ol] | 6.07 | 4.93 | 7.92 | < 4.52 | 59.9 µM (≈ 26.3 µg/mL) | 6.31 | 5.94 | >300 µL/min/mg | 6.42
